Data set [1] can be described thus: Antioxidant activity assessed as trolox equivalent of FRAP radical scavenging activity measured after 1 hrs by spectrophotometric analysis. It counts as functional.
Data set [2] is described as follows: Antioxidant activity assessed as ORAC radical scavenging activity by measuring fold change in trolox equivalent at 10 uM measured for 2 hrs by AAPH based fluorescence microplate reader relative to trolox. It counts as functional.
Data set [3] in a line: Metal chelating activity assessed as Fe2+-compound complex formation by measuring absorbance at 400 uM measured after 30 mins in presence of FeCl2.4H2O by UV-Vis spectroscopic analysis (reference value: 245 to 373 nanometer).
The nature of data set [4]: Antioxidant activity assessed as trolox equivalent of ORAC radical scavenging activity at 10 uM measured for 2 hrs by AAPH based fluorescence microplate reader. It counts as functional.
A short description of data set [5]: Hemolytic activity in AAPH-induced Sprague-Dawley rat erythrocytes assessed as hemolysis at 100 uM measured after 3 hrs by microplate reader analysis relative to control. The data set is classed as toxicity, cell-based, Erythrocyte. The following applies: read-out: Activity.
Data set [6] in a line: Antioxidant activity against AAPH-induced oxidative stress in Sprague-Dawley rat erythrocytes assessed as inhibition of lipid peroxidation by measuring fold change at 100 uM preincubated for 15 mins followed by AAPH addition and measured after 3 hrs by TBARS assay (reference value: 1). The data set is classed as functional, Erythrocyte. The following applies: time 195 min, 3.25 h.

Data set [7] can be described thus: Antioxidant activity against AAPH-induced oxidative stress in Sprague-Dawley rat erythrocytes assessed as membrane stabilizing activity by measuring hemolysis at 100 uM preincubated for 15 mins followed by AAPH addition and measured after 3 hrs by microplate reader analysis (reference value: 88.6 +/- 3.7%). The data set is classed as functional, Erythrocyte. The following applies: time 195 min, 3.25 h.

In data set [8] the target is Acetylcholinesterase (Homo sapiens) (UniProt P22303). The data set is described as follows: Inhibition of human erythrocyte acetylcholinesterase using acetylthiocholine as substrate at 20 uM by Ellman's method relative to control. (In general: In Ellman's method for cholinesterases, released thiocholine reacts with DTNB.)
The target in data set [9] is T1, Liver carboxylesterase (Sus scrofa, UniProt Q29550).
T1 sequence (Q29550 whole entry): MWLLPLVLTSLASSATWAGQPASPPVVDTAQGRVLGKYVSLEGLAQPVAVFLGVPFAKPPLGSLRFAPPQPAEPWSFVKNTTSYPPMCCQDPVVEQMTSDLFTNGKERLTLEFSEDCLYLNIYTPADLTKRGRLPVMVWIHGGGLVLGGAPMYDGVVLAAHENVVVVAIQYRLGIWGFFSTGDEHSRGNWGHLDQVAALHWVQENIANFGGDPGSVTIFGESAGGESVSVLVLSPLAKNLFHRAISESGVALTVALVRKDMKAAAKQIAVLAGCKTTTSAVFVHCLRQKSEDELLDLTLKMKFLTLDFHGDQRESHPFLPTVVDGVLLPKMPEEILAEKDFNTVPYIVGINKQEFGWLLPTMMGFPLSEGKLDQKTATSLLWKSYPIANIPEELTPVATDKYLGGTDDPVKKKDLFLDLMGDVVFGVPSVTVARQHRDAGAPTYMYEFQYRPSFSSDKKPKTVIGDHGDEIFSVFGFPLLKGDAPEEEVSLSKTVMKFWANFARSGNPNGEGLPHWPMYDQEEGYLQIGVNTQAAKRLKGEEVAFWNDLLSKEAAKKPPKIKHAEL
The data set is described as follows: Inhibition of porcine liver carboxylesterase using 4-nitrophenylacetate as substrate assessed as release of 4-nitrophenol by spectrophotometric analysis.

The nature of data set [10]: Antioxidant activity assessed as ABTS radical scavenging activity by measuring trolox equivalent antioxidant capacity after 1 hrs by UV/Vis microplate spectrophotometric analysis. The data set is classed as functional.
Data set [11] is described as follows: Metal chelating activity assessed as Fe2+-compound complex formation by measuring absorbance at 400 uM measured after 30 mins in presence of FeCl2.4H2O by UV-Vis spectroscopic analysis (reference value: 253 to 384 nanometer).
Data set [12] is described as follows: Antioxidant activity assessed as reduction in ABTS radical measured after 1 hrs by UV/Vis microplate spectrophotometric analysis. It counts as functional.
The target of data set [13] is Cholinesterase (Equus caballus) (UniProt P81908). The data set is described as follows: Inhibition of equine serum butyrylcholinesterase using butyrylthiocholine as substrate at 20 uM by Ellman's method relative to control.
The target of data set [14] is T1, Liver carboxylesterase. As to the kind of experiment: Reversible mixed type inhibition of porcine liver carboxylesterase using 4-nitrophenylacetate as substrate assessed as inhibition constant of non-competitive component by Lineweaver-Burk plot analysis.
The target in data set [15] is T1, Liver carboxylesterase. The data set is described as follows: Reversible mixed type inhibition of porcine liver carboxylesterase using 4-nitrophenylacetate as substrate assessed as inhibition constant of competitive component by Lineweaver-Burk plot analysis.
Data set [16] addresses T2, Cocaine esterase (Homo sapiens, UniProt O00748).
T2 sequence (O00748 whole entry): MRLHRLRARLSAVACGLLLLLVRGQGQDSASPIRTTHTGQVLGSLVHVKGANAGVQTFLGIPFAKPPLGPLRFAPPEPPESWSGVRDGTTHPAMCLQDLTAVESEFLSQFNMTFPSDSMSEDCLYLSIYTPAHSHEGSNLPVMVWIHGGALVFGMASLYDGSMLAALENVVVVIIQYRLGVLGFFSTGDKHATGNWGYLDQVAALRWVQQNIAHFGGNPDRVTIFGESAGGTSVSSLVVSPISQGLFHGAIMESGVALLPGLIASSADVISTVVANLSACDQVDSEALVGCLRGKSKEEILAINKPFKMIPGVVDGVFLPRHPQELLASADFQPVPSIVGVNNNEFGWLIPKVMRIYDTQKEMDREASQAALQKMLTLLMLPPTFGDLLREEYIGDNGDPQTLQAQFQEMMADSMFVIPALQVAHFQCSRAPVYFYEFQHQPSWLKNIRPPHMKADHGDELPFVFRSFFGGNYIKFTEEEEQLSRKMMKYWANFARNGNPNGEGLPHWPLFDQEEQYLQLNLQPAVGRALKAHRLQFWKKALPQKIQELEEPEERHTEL
As to the kind of experiment: Inhibition of human CES2 using 4-nitrophenylacetate as substrate assessed as release of 4-nitrophenol by spectrophotometric analysis.

Data set [17] has as its target T3, Liver carboxylesterase 1 (Homo sapiens, UniProt P23141).
T3 sequence (P23141 whole entry): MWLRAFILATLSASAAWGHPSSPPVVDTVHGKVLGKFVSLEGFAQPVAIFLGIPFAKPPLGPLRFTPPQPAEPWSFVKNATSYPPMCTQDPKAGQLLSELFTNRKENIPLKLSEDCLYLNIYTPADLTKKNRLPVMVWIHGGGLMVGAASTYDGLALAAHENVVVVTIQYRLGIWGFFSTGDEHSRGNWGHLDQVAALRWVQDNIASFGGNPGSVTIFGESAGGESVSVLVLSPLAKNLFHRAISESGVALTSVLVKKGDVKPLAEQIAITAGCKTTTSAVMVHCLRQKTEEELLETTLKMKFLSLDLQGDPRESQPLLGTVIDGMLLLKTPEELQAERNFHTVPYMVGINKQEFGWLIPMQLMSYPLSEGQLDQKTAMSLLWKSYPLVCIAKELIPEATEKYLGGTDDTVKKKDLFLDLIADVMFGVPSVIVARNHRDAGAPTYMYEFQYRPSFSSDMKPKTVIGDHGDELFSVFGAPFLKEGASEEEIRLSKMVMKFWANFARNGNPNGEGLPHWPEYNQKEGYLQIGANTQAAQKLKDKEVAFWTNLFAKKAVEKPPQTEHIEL
As to the kind of experiment: Inhibition of human CES1 using 4-nitrophenylacetate as substrate assessed as release of 4-nitrophenol by spectrophotometric analysis.

We go through three molecules from ChEMBL document CHEMBL6087406, “2-Arylhydrazinylidene-3-oxo-3-polyfluoroalkylpropanoic acids as selective and effective carboxylesterase inhibitors with powerful antioxidant potential” (Bioorg Med Chem, 2024).

pIC50, pKi: −log10 of the molar value. Calls of active or inactive are those of the source. No cut-off for these calls is given here.

The term inhibition denotes the relative decrease from the control value, in per cent. Broadly, the pIC50 is the IC50 on a negative log10 scale, so that one unit is a factor of ten. In general, pKi refers to −log10 of the Ki, conventionally taken in molar units.

Cholinesterase (Equus caballus), sequence (P81908 whole entry): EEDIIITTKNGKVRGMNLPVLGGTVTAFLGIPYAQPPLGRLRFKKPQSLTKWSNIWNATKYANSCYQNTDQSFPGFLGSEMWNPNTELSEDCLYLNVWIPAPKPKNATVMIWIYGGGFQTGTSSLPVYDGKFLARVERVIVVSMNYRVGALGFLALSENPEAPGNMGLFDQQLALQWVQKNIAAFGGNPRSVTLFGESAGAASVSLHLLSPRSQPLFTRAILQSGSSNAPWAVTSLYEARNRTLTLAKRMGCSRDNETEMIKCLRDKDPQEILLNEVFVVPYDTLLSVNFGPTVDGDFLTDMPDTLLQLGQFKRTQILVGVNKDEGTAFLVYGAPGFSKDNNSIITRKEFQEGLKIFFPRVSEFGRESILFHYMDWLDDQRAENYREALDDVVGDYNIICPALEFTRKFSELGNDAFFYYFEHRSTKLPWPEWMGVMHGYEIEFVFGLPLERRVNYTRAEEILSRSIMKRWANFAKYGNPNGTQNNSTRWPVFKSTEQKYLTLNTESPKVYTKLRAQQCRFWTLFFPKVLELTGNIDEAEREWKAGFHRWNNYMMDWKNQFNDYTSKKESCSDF
Acetylcholinesterase (Homo sapiens), sequence (P22303 whole entry): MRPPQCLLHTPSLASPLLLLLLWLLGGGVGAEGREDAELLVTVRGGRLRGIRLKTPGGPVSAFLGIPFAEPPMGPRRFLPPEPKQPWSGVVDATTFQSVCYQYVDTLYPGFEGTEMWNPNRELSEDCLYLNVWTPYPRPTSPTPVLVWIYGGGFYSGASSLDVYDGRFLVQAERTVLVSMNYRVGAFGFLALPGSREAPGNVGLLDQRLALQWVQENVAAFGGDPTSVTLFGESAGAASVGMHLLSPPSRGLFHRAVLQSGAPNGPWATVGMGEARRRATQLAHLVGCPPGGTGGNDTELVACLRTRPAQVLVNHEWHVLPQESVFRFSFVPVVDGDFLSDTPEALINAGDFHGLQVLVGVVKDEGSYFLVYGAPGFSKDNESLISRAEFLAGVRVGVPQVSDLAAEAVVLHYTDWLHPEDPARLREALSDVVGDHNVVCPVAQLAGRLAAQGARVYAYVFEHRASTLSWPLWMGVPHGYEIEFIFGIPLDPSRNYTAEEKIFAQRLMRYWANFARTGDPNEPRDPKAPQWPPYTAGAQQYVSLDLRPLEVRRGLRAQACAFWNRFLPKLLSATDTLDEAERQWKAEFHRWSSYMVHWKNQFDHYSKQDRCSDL

For the molecule `COc1ccc(N/N=C(/C(C)=O)C(=O)O)cc1`, the Activity worked out at 2.5 in data set [1], 263 nm in data set [3], 3.67 in data set [4] and 45.6% in [7]. Also, the fold change (FC) was > 3 in data set [2] and 0.24 in data set [6]. For the same molecule, in [5], the hemolysis at 3 h, 100 µM worked out at 2%.
`COc1ccc(N/N=C(\C(=O)O)C(=O)C(F)(F)C(F)(F)C(F)(F)F)cc1`: the Activity in data set [1] turned out to be 1.86; in data set [10] it was 2.1; in data set [4] it was 3.67; in data set [7], 95.9%; in [11] it was 271 nm. Besides, the inhibition in data set [8] came out at 19.4%; in data set [13], 13.4%. For the same molecule, the fold change (FC) in data set [2] was > 3; in [6] it was 0.63. For the same molecule, the figures for the pIC50 in data set [9] and in [12] were 7.02 and 5.09, respectively. The hemolysis at 3 h, 100 µM in [5] was 2%.
Turning to `Cc1ccc(N/N=C(\C(=O)O)C(=O)C(F)(F)C(F)(F)C(F)(F)C(F)(F)F)cc1`, the figures for the Activity in data set [1], in data set [10] and in [4] were 0.14, 1.37 and 3.2, respectively. Further, the pKi in data set [14] is 7.57; in data set [15], 7.74. In data set [8], this molecule had an inhibition of 9.8%. Besides, in [2], the fold change (FC) is > 3. Besides, the pIC50 is 7.38 in data set [9], 4.96 in data set [12], 6.96 in data set [16] and 6.99 in [17]. In data set [13], the inhibition entry is “inactive”.
